Results from ChEMBL document CHEMBL5518193, “Discovery of N-alkyl-N-benzyl thiazoles as novel TRPC antagonists for the treatment of glioblastoma multiforme” (Eur J Med Chem, 2024).

Columns and labels:
[1] = target: T1, Short transient receptor potential channel 6 (Mus musculus) (UniProt Q61143); assay: Antagonist activity at mouse TRPC6 stably expressed in HEK293 cells assessed as inhibition of calcium influx at 10 uM by calcium fluorescence assay relative to control; type: cell-based; details: filed as antagonist
T1 sequence (whole entry): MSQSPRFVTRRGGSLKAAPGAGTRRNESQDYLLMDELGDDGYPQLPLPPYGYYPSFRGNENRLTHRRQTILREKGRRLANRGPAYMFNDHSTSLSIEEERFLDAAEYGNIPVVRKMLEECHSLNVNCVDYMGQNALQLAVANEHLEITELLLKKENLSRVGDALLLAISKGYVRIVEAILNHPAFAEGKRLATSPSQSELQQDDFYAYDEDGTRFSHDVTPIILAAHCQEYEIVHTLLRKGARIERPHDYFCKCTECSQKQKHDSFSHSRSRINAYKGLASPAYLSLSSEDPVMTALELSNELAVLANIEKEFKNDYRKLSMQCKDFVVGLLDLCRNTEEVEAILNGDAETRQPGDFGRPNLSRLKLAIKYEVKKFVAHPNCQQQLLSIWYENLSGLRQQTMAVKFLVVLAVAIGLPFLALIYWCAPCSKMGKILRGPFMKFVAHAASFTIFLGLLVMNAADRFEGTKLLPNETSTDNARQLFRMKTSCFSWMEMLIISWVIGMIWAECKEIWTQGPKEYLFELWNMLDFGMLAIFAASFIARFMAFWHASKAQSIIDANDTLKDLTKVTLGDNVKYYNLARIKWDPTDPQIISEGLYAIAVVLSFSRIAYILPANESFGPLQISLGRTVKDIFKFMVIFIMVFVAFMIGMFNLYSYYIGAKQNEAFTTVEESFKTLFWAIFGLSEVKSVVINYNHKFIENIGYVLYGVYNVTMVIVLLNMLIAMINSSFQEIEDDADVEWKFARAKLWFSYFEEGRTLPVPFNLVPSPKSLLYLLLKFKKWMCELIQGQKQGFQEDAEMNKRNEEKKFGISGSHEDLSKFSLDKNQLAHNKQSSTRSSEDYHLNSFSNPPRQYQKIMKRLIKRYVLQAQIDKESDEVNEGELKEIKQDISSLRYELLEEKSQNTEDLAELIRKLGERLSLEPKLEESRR

[2] = target: T2, Short transient receptor potential channel 4 (Mus musculus, UniProt Q9QUQ5); assay: Antagonist activity at mouse TRPC4 stably expressed in HEK293 cells inhibition of calcium influx by calcium fluorescence assay; type: cell-based
T2 sequence (Q9QUQ5 whole entry): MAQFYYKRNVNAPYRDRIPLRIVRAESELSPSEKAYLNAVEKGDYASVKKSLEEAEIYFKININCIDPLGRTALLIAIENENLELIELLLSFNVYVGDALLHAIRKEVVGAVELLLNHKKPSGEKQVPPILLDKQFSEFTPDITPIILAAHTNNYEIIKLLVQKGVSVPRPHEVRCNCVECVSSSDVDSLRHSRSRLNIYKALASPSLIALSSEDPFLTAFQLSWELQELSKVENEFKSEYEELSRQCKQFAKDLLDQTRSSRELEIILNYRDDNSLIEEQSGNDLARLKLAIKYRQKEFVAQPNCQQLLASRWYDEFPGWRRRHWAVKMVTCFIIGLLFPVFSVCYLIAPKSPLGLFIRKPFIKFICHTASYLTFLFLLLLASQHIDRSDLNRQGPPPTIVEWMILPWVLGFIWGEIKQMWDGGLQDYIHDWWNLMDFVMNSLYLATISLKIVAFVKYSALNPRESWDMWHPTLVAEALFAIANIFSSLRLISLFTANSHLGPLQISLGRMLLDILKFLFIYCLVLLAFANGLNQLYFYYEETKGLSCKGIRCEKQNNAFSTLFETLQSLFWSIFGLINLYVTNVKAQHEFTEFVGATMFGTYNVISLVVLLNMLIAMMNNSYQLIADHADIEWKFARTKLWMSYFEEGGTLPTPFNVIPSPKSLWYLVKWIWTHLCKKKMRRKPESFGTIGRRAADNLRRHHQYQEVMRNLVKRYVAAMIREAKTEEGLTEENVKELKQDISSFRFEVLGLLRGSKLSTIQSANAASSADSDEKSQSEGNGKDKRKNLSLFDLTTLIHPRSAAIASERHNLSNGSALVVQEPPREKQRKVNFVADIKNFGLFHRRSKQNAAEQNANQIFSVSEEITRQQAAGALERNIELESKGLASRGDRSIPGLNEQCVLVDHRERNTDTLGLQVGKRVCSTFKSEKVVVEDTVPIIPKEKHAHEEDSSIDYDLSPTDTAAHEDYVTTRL

LNCaP = assay: Antiproliferative activity against human LNCaP cells assessed as reduction in cell viability incubated for 72 hrs by MTT assay; type: functional, cell-based
U-87 MG [3] = assay: Antiproliferative activity against human U87 cells assessed as reduction in cell viability incubated for 72 hrs by MTT assay; type: functional, cell-based, U-87MG ATCC
[4] = Tmax in BALB/c mouse at 50 mg/kg, ip administered as liposome encapsulated form and measured upto 24 hrs by LC-MS/MS analysis; type: ADME, organism-based; details: in vivo
[5] = Terminal half life in BALB/c mouse at 25 mg/kg, ip administered as liposome encapsulated form and measured upto 24 hrs by LC-MS/MS analysis; type: ADME, organism-based; details: in vivo, read-out: beta t1/2 (converted)
[6] = Terminal half life in BALB/c mouse at 50 mg/kg, ip administered as liposome encapsulated form and measured upto 24 hrs by LC-MS/MS analysis; type: ADME, organism-based; details: in vivo, read-out: beta t1/2 (converted)
[7] = Apparent clearance in BALB/c mouse at 50 mg/kg, ip administered as liposome encapsulated form and measured upto 24 hrs by LC-MS/MS analysis; type: ADME, organism-based; details: in vivo, read-out: CL(app) (converted)
[8] = AUC (0 to t) in BALB/c mouse at 50 mg/kg, ip administered as liposome encapsulated form and measured upto 24 hrs by LC-MS/MS analysis; type: ADME, organism-based; details: in vivo
[9] = AUC (0 to infinity) in BALB/c mouse at 12.5 mg/kg, ip administered as liposome encapsulated form and measured upto 24 hrs by LC-MS/MS analysis; type: ADME, organism-based; details: in vivo
[10] = AUC (0 to infinity) in BALB/c mouse at 50 mg/kg, ip administered as liposome encapsulated form and measured upto 24 hrs by LC-MS/MS analysis; type: ADME, organism-based; details: in vivo
U-87 MG [11] = assay: Antitumor activity against human U87 cells xenografted in BALB/c nude mouse assessed as tumor growth inhibition at 50 mg/kg/day administered as liposome encapsulated form for 15 days and measured every 3 days by vernier caliper; type: functional, U-87MG ATCC; details: 360 h, time 15 day, read-out: TGI
U-87 MG [12] = assay: Antitumor activity against human U87 cells xenografted in BALB/c nude mouse assessed as tumor growth inhibition at 25 mg/kg/day administered as liposome encapsulated form for 15 days and measured every 3 days by vernier caliper; type: functional, U-87MG ATCC; details: 360 h, time 15 day, read-out: TGI
U-87 MG [13] = assay: Antitumor activity against human U87 cells xenografted in BALB/c nude mouse assessed as tumor growth inhibition at 12.5 mg/kg/day administered as liposome encapsulated form for 15 days and measured every 3 days by vernier caliper; type: functional, U-87MG ATCC; details: 360 h, time 15 day, read-out: TGI
[14] = Cmax in BALB/c mouse at 12.5 mg/kg, ip administered as liposome encapsulated form and measured upto 24 hrs by LC-MS/MS analysis; type: ADME, organism-based; details: in vivo

SMILES: NCCN(Cc1ccc2ccccc2c1)c1nc(C(=O)Nc2ccc(O)cc2)cs1
- inhibition [1]: 100%
- IC50 [2]: 12.2 µM
- IC50 (LNCaP): 8.3 µM
- IC50 (U-87 MG [3]): 5.7 µM
- Tmax [4]: 4 h
- half-life [5]: 3.4 h
- half-life [6]: 3.8 h
- CL/F [7]: 49.6 mL/min/kg
- AUC(0-t) at 24 h [8]: 16600 ng·h/mL
- AUC(0-inf) [9]: 2790 ng·h/mL
- AUC(0-inf) [10]: 16800 ng·h/mL
- inhibition in vivo at 50 mg/kg/day (U-87 MG [11]): 49.4%
- inhibition in vivo at 25 mg/kg/day (U-87 MG [12]): 45.8%
- inhibition in vivo at 12.5 mg/kg/day (U-87 MG [13]): 36.3%
- Cmax [14]: 288 ng/mL
